Source: patent publication US20090192149A1, “Imidazo Compounds” (SPEEDEL EXPERIMENTA AG, priority 2006, published 2009)

Target: T1, recombinant human Cyp19 enzyme (Homo sapiens, UniProt P11511)
T1 construct: purchased Becton Dickinson Biosciences, San Jose, Calif., USA
T1 sequence (P11511 1-503): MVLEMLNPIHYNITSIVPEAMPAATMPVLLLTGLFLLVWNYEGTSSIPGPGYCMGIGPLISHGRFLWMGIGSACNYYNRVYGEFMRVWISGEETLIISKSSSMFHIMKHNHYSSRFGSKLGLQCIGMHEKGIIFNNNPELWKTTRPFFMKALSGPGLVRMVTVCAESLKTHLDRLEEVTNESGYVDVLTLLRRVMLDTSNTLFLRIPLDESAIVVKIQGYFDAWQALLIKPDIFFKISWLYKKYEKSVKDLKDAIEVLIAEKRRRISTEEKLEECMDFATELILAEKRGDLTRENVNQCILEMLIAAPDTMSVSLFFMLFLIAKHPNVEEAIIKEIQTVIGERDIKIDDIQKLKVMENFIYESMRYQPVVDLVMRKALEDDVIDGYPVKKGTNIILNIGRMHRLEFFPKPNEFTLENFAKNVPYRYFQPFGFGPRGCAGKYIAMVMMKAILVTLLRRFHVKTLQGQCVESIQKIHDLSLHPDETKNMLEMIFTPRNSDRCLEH
Experiment: Cyp19/MFC high throughput inhibition kit (Becton Dickinson)
Assay type: biochemical
Settings: recombinant human Cyp19 supersomes, MFC substrate
Procedure: A compound of formula (I) is to be understood as a compound having a specific configuration around the designated asymmetric carbon atom labelled “*”. If a synthesis method is used which leads to racemic compounds, the racemate resolution is carried out in accordance with conventional methods, such as via a chiral HPLC column. […] The aforementioned activity can, readily and as described below, be determined by using a commercial Cyp19 enzyme inhibition kit, preferably the Cyp19/methoxy-4-trifluoromethyl-coumarin (MFC) high throughput inhibition kit (Becton Dickinson Biosciences, San Jose, Calif., USA) as described hereafter. In the above-mentioned inhibition kit, compounds of the formula (I) show an inhibiting activity which is at least 10 times higher, but preferably 20 times higher, or more preferably 40 times higher, than the substances of the formula (I) with the opposite configuration around the asymmetric carbon atom labelled “*”. A higher inhibiting activity corresponds to a lower IC50 value.
These effects are demonstrable in in vitro assay tests using cell-free and cellular systems. […] The Cyp19/Methoxy-4-trifluoromethyl-coumarin (MFC) high throughput inhibition kit (Becton Dickinson Biosciences, San Jose, Calif., USA), for example, is designed to screen for potential inhibitors of Cyp19 catalytic activity in a 96-well format. […]

| IC50 [µM] | SMILES |
| --- | --- |
| 8.35 | N#Cc1ccc(C2COCc3cncn32)cc1 (centres unmarked) [antipode of 1] |
| 0.0048 | N#Cc1ccc(C2COCc3cncn32)cc1 (single isomer, unassigned) [Example 1, 4-(5,6-Dihydro-8H-imidazo[5,1-c][1,4]oxazin-5-yl)benzonitrile] |
